Activity calls are given as the source filed them. The rule behind the calls is not given here.
Columns and labels:
Endonuclease 8-like 1 [1] = target: T1, Endonuclease 8-like 1 (Homo sapiens, UniProt Q96FI4); assay: Inhibition of NEIL1 (unknown origin) assessed as remaining enzyme activity at 50 uM using Sp/Gh substrate incubated for 40 mins by TAMRA fluorescence-based assay
[2] = target: T2, Endonuclease III-like protein 1 (Homo sapiens) (UniProt P78549); assay: Inhibition of NTH1 (unknown origin) assessed as remaining enzyme activity at 50 uM incubated for 40 mins by TAMRA fluorescence-based assay
T2 sequence (whole entry): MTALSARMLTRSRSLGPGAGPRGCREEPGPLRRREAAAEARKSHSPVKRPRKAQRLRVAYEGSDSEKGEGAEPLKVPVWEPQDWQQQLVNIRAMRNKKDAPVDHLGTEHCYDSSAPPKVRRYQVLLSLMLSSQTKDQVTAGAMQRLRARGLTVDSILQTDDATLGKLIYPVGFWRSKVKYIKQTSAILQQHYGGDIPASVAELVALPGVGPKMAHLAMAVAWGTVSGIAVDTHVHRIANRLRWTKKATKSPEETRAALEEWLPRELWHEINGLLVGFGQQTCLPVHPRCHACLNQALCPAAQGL

N-glycosylase/DNA lyase [3] = target: T3, N-glycosylase/DNA lyase (Homo sapiens, UniProt O15527); assay: Inhibition of human OGG1 assessed as reduction in AP lyase activity using AP-containing substrate
T3 sequence (O15527 whole entry): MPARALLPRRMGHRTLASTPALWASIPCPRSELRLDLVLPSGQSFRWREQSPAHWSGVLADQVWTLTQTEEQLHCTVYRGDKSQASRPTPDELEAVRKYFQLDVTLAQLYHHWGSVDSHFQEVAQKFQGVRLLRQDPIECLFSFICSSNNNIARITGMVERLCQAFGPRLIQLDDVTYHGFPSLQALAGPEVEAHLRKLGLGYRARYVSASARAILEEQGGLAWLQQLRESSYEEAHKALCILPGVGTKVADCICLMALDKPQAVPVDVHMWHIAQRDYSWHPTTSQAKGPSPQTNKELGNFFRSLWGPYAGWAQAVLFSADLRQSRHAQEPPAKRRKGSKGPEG

N-glycosylase/DNA lyase [4] = target: T3, N-glycosylase/DNA lyase; assay: Inhibition of human OGG1 assessed as reduction in free 8-oxo-Gua release using gamma-irradiated calf thymus DNA substrate incubated for 1 hr by GC-MS/MS assay
N-glycosylase/DNA lyase [5] = target: T3, N-glycosylase/DNA lyase; assay: Inhibition of human OGG1 assessed as reduction in free Inhibition of human OGG1 assessed as reduction in free FapyGua release using gamma-irradiated calf thymus DNA substrate incubated for 1 hr by GC-MS/MS assay
Homo sapiens [6] = species: Homo sapiens; assay: Selectivity index, ratio of IC50 for inhibition of NEIL1 (unknown origin) using Sp/Gh substrate incubated for 40 mins by TAMRA fluorescence-based assay to IC50 for inhibition of human OGG1 incubated for 30 mins using 8-oxo-Gua-containing substrate by TAMRA fluorescence-based assay
Homo sapiens [7] = species: Homo sapiens; assay: Selectivity index, ratio of IC50 for inhibition of NTH1 (unknown origin) incubated for 40 mins by TAMRA fluorescence-based assay to IC50 for inhibition of human OGG1 incubated for 30 mins using 8-oxo-Gua-containing substrate by TAMRA fluorescence-based assay
[8] = Selectivity index, ratio of IC50 for inhibition of Escherichia coli FPG using 8-oxo-Gua substrate incubated for 10 mins by TAMRA fluorescence-based assay to IC50 for inhibition of human OGG1 incubated for 30 mins using 8-oxo-Gua-containing substrate by TAMRA fluorescence-based assay
N-glycosylase/DNA lyase [9] = target: T3, N-glycosylase/DNA lyase; assay: Inhibition of human OGG1 assessed as protection against NaOH-mediated strand cleavage using AP-containing substrate; set-up: scale not given: the % may be the effect or the level left
N-glycosylase/DNA lyase [10] = target: T3, N-glycosylase/DNA lyase; assay: Inhibition of human OGG1 catalytic activity assessed as reduction trapping of substrates at 10 uM using 8-oxo-Gua substrate in presence of sodium cyno-borohydride by gel electrophoresis method
N-glycosylase/DNA lyase [11] = target: T3, N-glycosylase/DNA lyase; assay: Inhibition of human OGG1 catalytic activity assessed as reduction trapping of substrates at 10 uM using AP site containing substrate in presence of sodium cyno-borohydride by gel electrophoresis method
N-glycosylase/DNA lyase [12] = target: T3, N-glycosylase/DNA lyase; settings: 0.08 to 8 uM
Description: Inhibition of human OGG1 at 0.08 to 8 uM incubated for 30 mins using 8-oxo-Gua-containing substrate by PAGE-based cleavage assay

[13] = Binding affinity to duplex DNA (unknown origin) assessed as induction of DNA intercalation at 50 uM incubated for 30 mins by gel electrophoresis
[14] = target: T4, Formamidopyrimidine-DNA glycosylase (Escherichia coli (strain K12)) (UniProt P05523); assay: Inhibition of Escherichia coli FPG assessed as remaining enzyme activity at 50 uM using 8-oxo-Gua substrate incubated for 10 mins by TAMRA fluorescence-based assay
T4 sequence (whole entry): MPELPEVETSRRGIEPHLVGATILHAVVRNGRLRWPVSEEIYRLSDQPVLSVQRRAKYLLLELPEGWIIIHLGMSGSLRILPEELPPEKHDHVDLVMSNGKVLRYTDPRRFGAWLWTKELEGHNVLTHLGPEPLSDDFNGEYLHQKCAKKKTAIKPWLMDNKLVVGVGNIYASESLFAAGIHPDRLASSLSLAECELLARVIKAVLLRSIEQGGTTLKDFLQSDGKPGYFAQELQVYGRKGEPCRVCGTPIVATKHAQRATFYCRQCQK

Endonuclease 8-like 1 [15] = target: T1, Endonuclease 8-like 1; assay: Inhibition of NEIL1 (unknown origin) using Sp/Gh substrate incubated for 40 mins by TAMRA fluorescence-based assay
[16] = target: T5, Endonuclease III-like protein 1 (Homo sapiens, UniProt P78549); assay: Inhibition of NTH1 (unknown origin) incubated for 40 mins by TAMRA fluorescence-based assay
T5 sequence (P78549 whole entry): T2 sequence (whole entry)

[17] = target: T6, Formamidopyrimidine-DNA glycosylase (Escherichia coli (strain K12), UniProt P05523); assay: Inhibition of Escherichia coli FPG using 8-oxo-Gua substrate incubated for 10 mins by TAMRA fluorescence-based assay
T6 sequence (P05523 whole entry): T4 sequence (whole entry)

Endonuclease 8-like 1 [18] = target: T1, Endonuclease 8-like 1; assay: Inhibition of NEIL1 (unknown origin) assessed as effect on DNA lesions per 10^6 DNA bases using FapyAde substrate incubated for 1 hr by GC-MS/MS assay
Endonuclease 8-like 1 [19] = target: T1, Endonuclease 8-like 1; assay: Inhibition of NEIL1 (unknown origin) assessed as effect on DNA lesions per 10^6 DNA bases using FapyGua substrate incubated for 1 hr by GC-MS/MS assay
Endonuclease 8-like 1 [20] = target: T1, Endonuclease 8-like 1; assay: Inhibition of NEIL1 (unknown origin) assessed as effect on DNA lesions per 10^6 DNA bases using 5-OH-5-MeHyd substrate incubated for 1 hr by GC-MS/MS assay
[21] = target: T2, Endonuclease III-like protein 1 (Homo sapiens); assay: Inhibition of NTH1 (unknown origin) assessed as effect on DNA lesions per 10^6 DNA bases using FapyAde substrate incubated for 1 hr by GC-MS/MS assay
[22] = target: T2, Endonuclease III-like protein 1 (Homo sapiens); assay: Inhibition of NTH1 (unknown origin) assessed as effect on DNA lesions per 10^6 DNA bases using FapyGua substrate incubated for 1 hr by GC-MS/MS assay
[23] = target: T2, Endonuclease III-like protein 1 (Homo sapiens); assay: Inhibition of NTH1 (unknown origin) assessed as effect on DNA lesions per 10^6 DNA bases using 5-OH-5-MeHyd substrate incubated for 1 hr by GC-MS/MS assay
[24] = target: T2, Endonuclease III-like protein 1 (Homo sapiens); assay: Inhibition of NTH1 (unknown origin) assessed as effect on DNA lesions per 10^6 DNA bases using thymine glycol substrate incubated for 1 hr by GC-MS/MS assay
[25] = target: T2, Endonuclease III-like protein 1 (Homo sapiens); assay: Inhibition of NTH1 (unknown origin) assessed as effect on DNA lesions per 10^6 DNA bases using 5-hydroxycytosine substrate incubated for 1 hr by GC-MS/MS assay
[26] = target: T4, Formamidopyrimidine-DNA glycosylase (Escherichia coli (strain K12)); assay: Inhibition of Escherichia coli FPG assessed as reduction in enzyme-mediated incision using compound pre-incubated with 8-oxo-Gua substrate for 30 mins at 37 degC followed by enzyme addition
[27] = target: T4, Formamidopyrimidine-DNA glycosylase (Escherichia coli (strain K12)); assay: Inhibition of Escherichia coli FPG assessed as reduction in enzyme-mediated incision using compound pre-incubated with AP-site containing DNA substrate for 30 mins at 37 degC followed by enzyme addition
N-glycosylase/DNA lyase [28] = target: T3, N-glycosylase/DNA lyase; assay: Inhibition of human OGG1 binding to 8-oxo-Gua substrate using compound pre-incubated with enzyme for 5 to 10 mins before substrate addition and further incubated for 5 mins by native gel electrophoresis based by gel-shift assay

T1 sequence (Q96FI4 whole entry): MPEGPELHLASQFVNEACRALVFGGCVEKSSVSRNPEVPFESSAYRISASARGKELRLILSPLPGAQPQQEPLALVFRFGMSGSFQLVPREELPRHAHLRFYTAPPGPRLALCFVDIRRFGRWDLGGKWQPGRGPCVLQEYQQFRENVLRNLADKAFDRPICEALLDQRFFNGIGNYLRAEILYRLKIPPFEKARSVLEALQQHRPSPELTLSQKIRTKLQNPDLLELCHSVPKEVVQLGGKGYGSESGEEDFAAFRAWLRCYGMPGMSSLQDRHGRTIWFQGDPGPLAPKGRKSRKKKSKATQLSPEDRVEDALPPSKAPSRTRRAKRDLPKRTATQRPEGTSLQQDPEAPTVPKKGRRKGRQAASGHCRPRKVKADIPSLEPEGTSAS

Activity (Endonuclease 8-like 1 [1])	Activity [2]	Activity (N-glycosylase/DNA lyase [9])	Activity [13]	Activity [14]	IC50 (Endonuclease 8-like 1 [15])	IC50 [16]	IC50 [17]	inhibition (Endonuclease 8-like 1 [18])	inhibition (Endonuclease 8-like 1 [19])	inhibition (Endonuclease 8-like 1 [20])	inhibition [21]	inhibition [22]	inhibition [23]	inhibition [24]	inhibition [25]	inhibition [26]	inhibition [27]	SMILES	other results
80.6%	98%	1%	–	–	–	–	–	–	–	–	–	–	–	–	–	–	–	NNC(=O)c1ccncc1	inhibition (N-glycosylase/DNA lyase [3]): inactive; inhibition (N-glycosylase/DNA lyase [4]): inactive; inhibition (N-glycosylase/DNA lyase [5]): inactive; Ratio IC50 (Homo sapiens [6]): > 200; Ratio IC50 (Homo sapiens [7]): > 200; Ratio IC50 [8]: > 200; inhibition (N-glycosylase/DNA lyase [10]): Active; inhibition (N-glycosylase/DNA lyase [11]): Active; inhibition (N-glycosylase/DNA lyase [12]): inactive
91.2%	96.1%	–	inactive	–	–	–	–	–	–	–	–	–	–	–	–	–	–	CCCN1CCC(=NNC(=O)c2ccc(Cl)cc2Cl)CC1	–
82.3%	94.8%	–	inactive	87.3%	> 50 µM	> 50 µM	> 50 µM	inactive	inactive	inactive	inactive	inactive	inactive	inactive	inactive	inactive	inactive	CC1CCCC/C1=N/NC(=O)c1sc2ccccc2c1Cl (centres undefined)	–
–	–	64%	–	–	–	–	–	–	–	–	–	–	–	–	–	–	–	NNc1nncc2ccccc12	–
95.3%	100%	–	inactive	90.8%	–	–	–	–	–	–	–	–	–	–	–	–	–	CC(Oc1cccc(Cl)c1)C(=O)NN (centres undefined)	–
52%	73%	–	inactive	–	–	–	–	–	–	–	–	–	–	–	–	–	–	C/C(=N\NC(=O)c1cc2ccccc2cc1O)c1ccc2c(c1)OCO2	–
100%	109%	–	inactive	–	–	–	–	–	–	–	–	–	–	–	–	–	–	COc1cc(C)c(S(=O)(=O)n2cc(C)nc2-c2ccccc2)cc1C	–
87.4%	83%	10%	inactive	77%	> 50 µM	> 50 µM	> 50 µM	inactive	inactive	inactive	inactive	inactive	inactive	inactive	inactive	inactive	inactive	O=C(NN=C1CCCCC1)c1cc2ccccc2cc1O	inhibition (N-glycosylase/DNA lyase [3]): Active; inhibition (N-glycosylase/DNA lyase [4]): Active; inhibition (N-glycosylase/DNA lyase [5]): Active; Ratio IC50 (Homo sapiens [6]): > 200; Ratio IC50 (Homo sapiens [7]): > 200; Ratio IC50 [8]: > 200; inhibition (N-glycosylase/DNA lyase [28]): inactive; inhibition (N-glycosylase/DNA lyase [10]): Active; inhibition (N-glycosylase/DNA lyase [11]): Active
97.6%	84.5%	–	inactive	91.7%	> 50 µM	> 50 µM	> 50 µM	inactive	inactive	inactive	inactive	inactive	inactive	inactive	inactive	inactive	inactive	O=C(NN=C1CCCCC1)c1ccc(Br)cc1	–
86.7%	89.2%	–	inactive	81.7%	> 50 µM	> 50 µM	> 50 µM	inactive	inactive	inactive	inactive	inactive	inactive	inactive	inactive	inactive	inactive	O=C(N/N=C/c1ccc(F)cc1)c1sc2ccccc2c1Cl	–
